ChEMBL document CHEMBL4033647, “Novel coumarin- and quinolinone-based polycycles as cell division cycle 25-A and -C phosphatases inhibitors induce proliferation arrest and apoptosis in cancer cells” (Eur J Med Chem, 2017)
pIC50: −log10 of the molar value. Activity calls are given as the source filed them. The rule behind the calls is not given here.

Assays:
[1] = test system: MCF7; assay: Cytotoxicity against human MCF7 cells assessed as reduction in cell viability after 72 hrs by MTT assay; format: functional, cell-based; details: MCF7, 72 h
[2] = test system: Hs 683; assay: Cytotoxicity against human Hs683 cells assessed as reduction in cell viability after 72 hrs by MTT assay; format: functional, cell-based; details: Hs 683, 72 h
[3] = test system: PC-3; assay: Cytotoxicity against human PC3 cells assessed as reduction in cell viability after 72 hrs by MTT assay; format: functional, cell-based; details: PC-3, 72 h
[4] = biological target: T1, M-phase inducer phosphatase 3 (Homo sapiens, UniProt P30307); assay: Inhibition of recombinant human full length GST-tagged CDC25C expressed in Escherichia coli BL21-DE3 pLysS using 3-O-methylfluorescein phosphate as substrate after 2 hrs by fluorimetric analysis
T1 sequence (P30307 whole entry): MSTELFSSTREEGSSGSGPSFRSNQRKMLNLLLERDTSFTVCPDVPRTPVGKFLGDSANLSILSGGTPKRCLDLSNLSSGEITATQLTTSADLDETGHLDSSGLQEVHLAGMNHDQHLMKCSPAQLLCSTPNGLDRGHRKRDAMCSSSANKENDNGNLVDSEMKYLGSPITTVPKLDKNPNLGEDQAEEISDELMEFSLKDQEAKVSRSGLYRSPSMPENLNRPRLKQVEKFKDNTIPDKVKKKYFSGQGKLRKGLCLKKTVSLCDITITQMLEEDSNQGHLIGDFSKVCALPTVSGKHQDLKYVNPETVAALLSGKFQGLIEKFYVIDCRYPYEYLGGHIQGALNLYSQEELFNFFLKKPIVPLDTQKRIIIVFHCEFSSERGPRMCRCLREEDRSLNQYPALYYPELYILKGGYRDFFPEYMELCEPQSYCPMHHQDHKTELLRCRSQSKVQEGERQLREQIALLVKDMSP

[5] = test system: A549; assay: Cytotoxicity against human A549 cells assessed as reduction in cell viability after 72 hrs by MTT assay; format: functional, cell-based; details: A549, 72 h
[6] = biological target: T2, M-phase inducer phosphatase 1 (Homo sapiens, UniProt P30304); assay: Inhibition of recombinant human full length GST-tagged CDC25A expressed in Escherichia coli BL21-DE3 pLysS using 3-O-methylfluorescein phosphate as substrate after 2 hrs by fluorimetric analysis
T2 sequence (P30304 whole entry): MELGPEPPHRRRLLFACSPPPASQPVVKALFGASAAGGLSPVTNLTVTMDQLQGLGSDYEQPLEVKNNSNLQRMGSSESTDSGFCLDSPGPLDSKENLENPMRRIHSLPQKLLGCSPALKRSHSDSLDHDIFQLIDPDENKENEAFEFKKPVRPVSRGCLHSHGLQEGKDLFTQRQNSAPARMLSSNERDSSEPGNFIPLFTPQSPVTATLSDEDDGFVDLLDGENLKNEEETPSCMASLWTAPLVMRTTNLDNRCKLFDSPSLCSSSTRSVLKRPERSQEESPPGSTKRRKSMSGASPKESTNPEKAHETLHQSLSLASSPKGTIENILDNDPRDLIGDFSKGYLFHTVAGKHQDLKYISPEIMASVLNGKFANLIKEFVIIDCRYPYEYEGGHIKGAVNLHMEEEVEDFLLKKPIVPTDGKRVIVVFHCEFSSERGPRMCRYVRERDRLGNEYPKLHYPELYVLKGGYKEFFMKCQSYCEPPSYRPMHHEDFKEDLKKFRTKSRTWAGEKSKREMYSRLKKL

[7] = Cytotoxicity against human U373n cells assessed as reduction in cell viability after 72 hrs by MTT assay; format: functional, cell-based
[8] = test system: SK-MEL-28; assay: Cytotoxicity against human SK-MEL-28 cells assessed as reduction in cell viability after 72 hrs by MTT assay; format: functional, cell-based; details: SK-MEL-28, 72 h
[9] = species on record: Homo sapiens; assay: Selectivity ratio of IC50 for recombinant human full length GST-tagged CDC25A expressed in Escherichia coli BL21-DE3 pLysS to IC50 for recombinant human full length GST-tagged CDC25C expressed in Escherichia coli BL21-DE3 pLysS
[10] = test system: A-431; assay: Cell cycle arrest in human A431 cells assessed as accumulation at G1 phase at 50 uM after 24 hrs by propidium iodide staining based flow cytometric analysis (reference value: 53.04%); format: functional
[11] = test system: A-431; assay: Induction of apoptosis in human A431 cells assessed as caspase-3 cleavage at 10 to 50 uM after 24 hrs by Western blot analysis; format: functional, cell-based
[12] = test system: A-431; assay: Cytotoxicity against human A431 cells assessed as reduction in cell viability after 24 hrs by MTT assay; format: functional, cell-based; details: A-431, 24 h
[13] = test system: A-431; assay: Induction of apoptosis in human A431 cells assessed as PARP cleavage at 50 uM after 24 hrs by Western blot analysis; format: functional, cell-based
[14] = test system: A-431; assay: Cell cycle arrest in human A431 cells assessed as accumulation at S phase at 10 uM after 24 hrs by propidium iodide staining based flow cytometric analysis (reference value: 17.33%); format: functional
[15] = test system: A-431; assay: Cell cycle arrest in human A431 cells assessed as accumulation at subG1 phase at 50 uM after 24 hrs by propidium iodide staining based flow cytometric analysis (reference value: 3.40%); format: functional
[16] = test system: A-431; assay: Decrease in CDC25C protein expression level in human A431 cell extract at 50 uM after 24 hrs by Western blot analysis; format: functional, cell-based
[17] = test system: A-431; assay: Cell cycle arrest in human A431 cells assessed as accumulation at G1 phase at 10 uM after 24 hrs by propidium iodide staining based flow cytometric analysis (reference value: 53.04%); format: functional
[18] = test system: A-431; assay: Cell cycle arrest in human A431 cells assessed as accumulation at subG1 phase at 10 uM after 24 hrs by propidium iodide staining based flow cytometric analysis (reference value: 3.40%); format: functional
[19] = test system: A-431; assay: Cell cycle arrest in human A431 cells assessed as accumulation at S phase at 50 uM after 24 hrs by propidium iodide staining based flow cytometric analysis (reference value: 17.33%); format: functional
[20] = test system: A-431; assay: Cell cycle arrest in human A431 cells assessed as accumulation at G2/M phase at 10 uM after 24 hrs by propidium iodide staining based flow cytometric analysis (reference value: 26.23%); format: functional
[21] = test system: A-431; assay: Cell cycle arrest in human A431 cells assessed as accumulation at G2/M phase at 50 uM after 24 hrs by propidium iodide staining based flow cytometric analysis (reference value: 26.23%); format: functional
[22] = test system: A-431; assay: Effect on CDC25C splice variant protein expression in human A431 cell extract at 50 uM after 24 hrs by Western blot analysis; format: functional, cell-based
[23] = biological target: T3, M-phase inducer phosphatase 3 (Homo sapiens) (UniProt P30307); details: 10 to 50 uM
T3 sequence (whole entry): T1 sequence (P30307 whole entry)
Description: Inhibition of CDC25C in human A431 cells assessed as increase in CDK-mediated phosphorylation of histone H3 at Ser10 residues at 10 to 50 uM after 24 hrs by Western blot analysis

SMILES | pIC50 [4] | pIC50 [6] | pIC50 [1] | pIC50 [2] | pIC50 [3] | pIC50 [5] | pIC50 [7] | pIC50 [8] | further results
O=C1C=CC(=O)c2c1ccc1c2c(=O)[nH]c2cc(Cl)ccc21 | 5.26 | 5.39 | 5.70 | 6.00 | 5.40 | 6.89 | 6.00 | 5.30 | 
O=C1C(SCCO)=C(SCCO)C(=O)c2ccccc21 |  |  | 6.02 | 5.55 | 5.47 | 5.84 | 5.73 | 5.64 | 
Cn1c(=O)c2c3c(ccc2c2ccccc21)C(=O)C=CC3=O | 4.83 | 4.89 | 4.47 | 4.17 | 4.49 | 4.17 | 4.39 | 4.17 | 
O=C1C=CC(=O)c2c1ccc1c2c(=O)[nH]c2c3ccccc3ccc12 | 5.36 | 5.49 | 4.52 | 4.52 | 4.38 | 4.35 | 4.38 | 4.14 | 
O=C1C=CC(=O)c2c1ccc1c2c(=O)[nH]c2ccc(F)cc21 | 5.33 | 5.47 | 5.40 | 5.52 | 5.52 | 5.40 | 5.70 | 5.52 | 
O=C1C=CC(=O)c2c1ccc1c2c(=O)oc2cc(OCc3ccccc3)ccc21 | 5.15 | 5.51 | < 4.00 | < 4.00 | < 4.00 | < 4.00 | < 4.00 | < 4.00 | 
O=C1C=CC(=O)c2c1ccc1c2c(=O)[nH]c2cc(F)ccc21 | 5.35 | 5.55 | 4.57 | 5.05 | 5.40 | 4.74 | 5.52 | 5.10 | 

The remaining compounds from weak to strong by pIC50 [4], led by results:

pIC50 [4] | pIC50 [6] | SMILES | pIC50 [1] | pIC50 [2] | pIC50 [3] | pIC50 [5] | pIC50 [7] | pIC50 [8] | further results
5.44 | 5.11 | O=C1C=CC(=O)c2c1ccc1c2c(=O)[nH]c2ccccc21 | 6.05 | 5.55 | 6.05 | 5.74 | 5.57 | 5.82 | Activity [10]: 53.93%; Activity [11]: inactive; Ratio IC50 [9]: 2; pIC50 [12]: 5.09; Activity [14]: 11.9%; Activity [15]: 12.81%; Activity [16]: Active; Activity [17]: 57.01%; Activity [18]: 6.26%; inhibition [23]: Active; Activity [19]: 6.98%; Activity [20]: 24.83%; Activity [21]: 26.28%; Activity [22]: Active
5.84 | 5.59 | O=C1C=CC(=O)c2c1ccc1c2c(=O)oc2ccc(Cl)cc21 | 4.89 | 5.22 | 4.72 | 4.60 | 4.92 | 4.48 | 
6.00 | 5.54 | Cc1ccc2c(c1)oc(=O)c1c3c(ccc12)C(=O)C=CC3=O | 4.09 | < 4.00 | < 4.00 | < 4.00 | 4.01 | < 4.00 | 
6.01 | 5.54 | COc1ccc2c(c1)oc(=O)c1c3c(ccc12)C(=O)C=CC3=O | 5.05 | 4.62 | 4.51 | 4.52 | 4.80 | 4.51 | 
6.10 | 5.18 | O=C1C=CC(=O)c2c1ccc1c2c(=O)oc2cc(O)ccc21 | 5.05 | 4.96 | 4.57 | 4.72 | 5.05 | 4.54 | 
6.11 | 5.79 | O=C1C=CC(=O)c2c1ccc1c2c(=O)oc2cc(Cl)ccc21 | 5.55 | 5.92 | 5.36 | 5.49 | 5.43 | 5.11 | Activity [10]: 53.78%; Activity [11]: inactive; pIC50 [12]: 4.54; Activity [13]: inactive; Activity [14]: 18.57%; Activity [15]: 4.07%; Activity [16]: inactive; Activity [17]: 48.91%; Activity [18]: 3.6%; Activity [19]: 16.24%; Activity [20]: 28.92%; Activity [21]: 25.91%; Activity [22]: inactive
6.16 | 5.66 | O=C1C=CC(=O)c2c1ccc1c2c(=O)oc2cc(F)ccc21 | 4.96 | 5.40 | 4.44 | 6.00 | 5.15 | 4.74 | 
6.40 | 5.46 | O=C1C=CC(=O)c2c1ccc1c2c(=O)oc2ccc(F)cc21 | 5.52 | 4.72 | 4.37 | 4.77 | 4.44 | 4.40 | Ratio IC50 [9]: 8.75
6.52 | 5.92 | CCN(CC)c1ccc2c(c1)oc(=O)c1c3c(ccc12)C(=O)C=CC3=O | 4.24 | 4.01 | 4.35 | 4.01 | 4.23 | 4.14 | 
7.00 | 5.82 | O=C1C=CC(=O)c2c1ccc1c2c(=O)oc2c3ccccc3ccc12 | 5.15 | 5.40 | 4.12 | 4.15 | 4.26 | < 4.00 | Ratio IC50 [9]: 15
